What was measured:
[1] = target: T1, Flt-3 (baculovirus expressed human Flt-3 kinase domain R571-S993) (Homo sapiens, UniProt P36888); test: biochemical; settings: read-out: flt3 IC50;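 also: Luciferase-coupled chemiluminescent kinase assay, activity read as percent ATP left after a 3 h reaction at room temperature, ATP near KM, 10-point dose-response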
T1 construct: human Flt-3 kinase domain R571-S993; host or cells: baculovirus expression
T1 sequence (P36888 571-993): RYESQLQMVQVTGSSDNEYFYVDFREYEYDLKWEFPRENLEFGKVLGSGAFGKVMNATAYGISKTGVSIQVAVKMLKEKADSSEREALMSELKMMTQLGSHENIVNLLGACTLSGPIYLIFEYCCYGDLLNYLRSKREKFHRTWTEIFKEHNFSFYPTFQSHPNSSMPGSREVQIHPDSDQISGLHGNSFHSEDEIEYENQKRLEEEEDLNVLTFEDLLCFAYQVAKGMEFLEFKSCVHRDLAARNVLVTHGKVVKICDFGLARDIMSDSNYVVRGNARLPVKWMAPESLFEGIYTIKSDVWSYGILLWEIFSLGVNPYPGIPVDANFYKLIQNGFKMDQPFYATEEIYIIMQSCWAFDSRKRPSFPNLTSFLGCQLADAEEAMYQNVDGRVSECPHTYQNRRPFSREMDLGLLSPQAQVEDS

[2] = target: T2, KDR (baculovirus expressed human KDR kinase domain D807-V1356) (Homo sapiens, UniProt P35968); test: biochemical;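 also: Luciferase-coupled chemiluminescent kinase assay, activity read as percent ATP left after 4 h reaction at ambient temperature, ATP near KM, 10-point dose-response in 384-well plates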
T2 construct: human KDR kinase domain D807-V1356; host or cells: baculovirus expression
Description: Kinase activity and compound inhibition are investigated using one or more of the three assay formats described below. The ATP concentrations for each assay are selected to be close to the Michaelis-Menten constant (KM) for each individual kinase. Dose-response experiments are performed at 10 different inhibitor concentrations in a 384-well plate format.
KDR biochemical activity was assessed using a Luciferase-Coupled Chemiluminescent Kinase assay (LCCA) format. Kinase activity was measured as the percent ATP remaining following the kinase reaction. Remaining ATP was detected by luciferase-luciferin-coupled chemiluminescence. […] The mixture is incubated at ambient temperature for 4 hours after which 20 uL luciferase-luciferin mix is added and the chemiluminescent signal read using a Wallac Victor^2 reader.

[3] = target: T3, c-Met (baculovirus expressed human c-Met kinase domain P948-S1343) (Homo sapiens, UniProt P08581); test: c-Met Luciferase-Coupled Chemiluminescent Kinase assay (LCCA); assay type: biochemical;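 also: kinase activity read as percent ATP left after reaction, by luciferase-luciferin chemiluminescence, with 1 µM ATP and 1 µM poly-EY substrate, 2 h at ambient temperature, 10-point dose-response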
T3 construct: human c-Met kinase domain P948-S1343; host or cells: baculovirus expression
T3 sequence (P08581 1011-1343 limits assumed): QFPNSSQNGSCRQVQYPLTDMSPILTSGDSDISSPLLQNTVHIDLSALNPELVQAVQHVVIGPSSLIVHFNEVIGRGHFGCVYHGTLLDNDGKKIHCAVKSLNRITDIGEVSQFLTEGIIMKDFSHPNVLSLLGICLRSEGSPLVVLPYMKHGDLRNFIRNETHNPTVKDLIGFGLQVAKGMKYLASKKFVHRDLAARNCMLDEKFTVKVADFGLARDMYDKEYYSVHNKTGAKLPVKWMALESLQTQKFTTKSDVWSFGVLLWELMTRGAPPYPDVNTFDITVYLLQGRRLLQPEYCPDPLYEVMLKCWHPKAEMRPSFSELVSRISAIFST

T2 sequence (P35968 807-1356): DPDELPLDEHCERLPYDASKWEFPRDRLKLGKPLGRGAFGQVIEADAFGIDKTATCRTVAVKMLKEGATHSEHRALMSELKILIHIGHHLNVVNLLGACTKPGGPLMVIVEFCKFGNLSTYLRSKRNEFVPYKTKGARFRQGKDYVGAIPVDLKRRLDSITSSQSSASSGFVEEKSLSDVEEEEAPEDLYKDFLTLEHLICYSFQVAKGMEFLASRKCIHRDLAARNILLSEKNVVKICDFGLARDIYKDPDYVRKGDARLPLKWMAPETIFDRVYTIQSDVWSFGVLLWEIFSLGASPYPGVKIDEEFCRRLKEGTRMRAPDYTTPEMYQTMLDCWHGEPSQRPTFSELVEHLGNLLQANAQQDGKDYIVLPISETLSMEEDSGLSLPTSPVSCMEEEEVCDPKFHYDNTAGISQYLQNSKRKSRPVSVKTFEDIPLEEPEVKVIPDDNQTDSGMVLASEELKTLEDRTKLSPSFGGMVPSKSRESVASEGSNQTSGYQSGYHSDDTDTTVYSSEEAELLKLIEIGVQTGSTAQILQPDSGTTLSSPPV

| Structure (SMILES) | IC50 [1] | IC50 [2] | IC50 [3] |
| --- | --- | --- | --- |
| CCN(CC)CCCOc1cc2nccc(Oc3ccc(NC(=O)[C@]4(C(=O)Nc5ccc(F)cc5)C[C@H]4C)cc3F)c2cc1OC [Example 359, (1R,2R)-N-(4-{[7-{[3-(diethylamino)propyl]oxy}-6-(methyloxy)quinolin-4-yl]oxy}-3-fluorophenyl)-N′-(4-fluorophenyl)-2-methylcyclopropane-1,1-dicarboxamide] | < 50 nM | < 50 nM | < 50 nM |
| CCN(CC)CCOc1cc2nccc(Oc3ccc(NC(=O)[C@]4(C(=O)Nc5ccc(F)cc5)C[C@H]4C)cc3F)c2cc1OC [Example 360, (1R,2R)-N-(4-{[7-{[2-(diethylamino)ethyl]oxy}-6-(methyloxy)quinolin-4-yl]oxy}-3-fluorophenyl)-N′-(4-fluorophenyl)-2-methylcyclopropane-1,1-dicarboxamide] | < 50 nM | < 50 nM | < 50 nM |
| CCN(CC)CCCOc1cc2nccc(Oc3ccc(NC(=O)[C@]4(C(=O)Nc5ccc(F)cc5)C[C@@H]4C)cc3F)c2cc1OC [Example 361, (1R,2S)-N-(4-{[7-{[3-(diethylamino)propyl]oxy}-6-(methyloxy)quinolin-4-yl]oxy}-3-fluorophenyl)-N′-(4-fluorophenyl)-2-methylcyclopropane-1,1-dicarboxamide] | < 50 nM | < 50 nM | < 50 nM |
| CCN(CC)CCOc1cc2nccc(Oc3ccc(NC(=O)[C@]4(C(=O)Nc5ccc(F)cc5)C[C@@H]4C)cc3F)c2cc1OC [Example 362, (1R,2S)-N-(4-{[7-{[2-(diethylamino)ethyl]oxy}-6-(methyloxy)quinolin-4-yl]oxy}-3-fluorophenyl)-N′-(4-fluorophenyl)-2-methylcyclopropane-1,1-dicarboxamide] | < 50 nM | < 50 nM | < 50 nM |
| COc1cc2c(Oc3ccc(NC(=O)[C@]4(C(=O)Nc5ccc(F)cc5)C[C@@H]4C)cc3F)ccnc2cc1OCCCN1CCNCC1 [Example 364, (1R,2S)-N-[3-fluoro-4-({6-(methyloxy)-7-[(3-piperazin-1-ylpropyl)oxy]quinolin-4-yl}oxy)phenyl]-N′-(4-fluorophenyl)-2-methylcyclopropane-1,1-dicarboxamide] | < 50 nM | < 50 nM | < 50 nM |
| COc1cc2c(Oc3ccc(NC(=O)[C@@]4(C(=O)Nc5ccc(F)cc5)[C@H](C)[C@@H]4C)cc3F)ccnc2cc1OCCCN1CCOCC1 [Example 365, (1r,2R,3S)-N-[3-fluoro-4-({6-(methyloxy)-7-[(3-morpholin-4-ylpropyl)oxy]quinolin-4-yl}oxy)phenyl]-N′-(4-fluorophenyl)-2,3-dimethylcyclopropane-1,1-dicarboxamide] | 50 to 500 nM | 50 to 500 nM | < 50 nM |
| COc1cc2c(Oc3ccc(NC(=O)[C@@]4(C(=O)Nc5ccc(F)cc5)[C@H](C)[C@@H]4C)cc3F)ccnc2cc1OCCCN1CCN(C)CC1 [Example 366, (1r,2R,3S)-N-{3-fluoro-4-[(6-(methyloxy)-7-{[3-(4-methylpiperazin-1-yl)propyl]oxy}quinolin-4-yl)oxy]phenyl}-N′-(4-fluorophenyl)-2,3-dimethylcyclopropane-1,1-dicarboxamide] | 50 to 500 nM | 50 to 500 nM | < 50 nM |
| COc1cc2c(Oc3ccc(NC(=O)[C@@]4(C(=O)Nc5ccc(F)cc5)[C@H](C)[C@@H]4C)cc3F)ncnc2cc1OCCCN1CCOCC1 [Example 367, (1r,2R,3S)-N-[3-fluoro-4-({6-(methyloxy)-7-[(3-morpholin-4-ylpropyl)oxy]quinazolin-4-yl}oxy)phenyl]-N′-(4-fluorophenyl)-2,3-dimethylcyclopropane-1,1-dicarboxamide] | 50 to 500 nM | < 50 nM | 50 to 500 nM |
| COc1cc2c(Oc3ccc(NC(=O)[C@@]4(C(=O)Nc5ccc(F)cc5)[C@H](C)[C@@H]4C)cc3F)ncnc2cc1OCCCN1CCN(C)CC1 [Example 368, (1r,2R,3S)-N-{3-fluoro-4-[(6-(methyloxy)-7-{[3-(4-methylpiperazin-1-yl)propyl]oxy}quinazolin-4-yl)oxy]phenyl}-N′-(4-fluorophenyl)-2,3-dimethylcyclopropane-1,1-dicarboxamide] | 50 to 500 nM | < 50 nM | < 50 nM |
| COc1cc2c(Oc3ccc(NC(=O)C4(C(=O)Nc5ccc(F)cc5)CCC4)cc3F)ncnc2cc1OCCCN1CCOCC1 [Example 369, N-[3-fluoro-4-({6-(methyloxy)-7-[(3-morpholin-4-ylpropyl)oxy]quinazolin-4-yl}oxy)phenyl]-N′-(4-fluorophenyl)cyclobutane-1,1-dicarboxamide] | 50 to 500 nM | < 50 nM | 50 to 500 nM |
| COc1cc2c(Oc3ccc(NC(=O)C4(C(=O)Nc5ccc(F)cc5)[C@H](C)[C@H]4C)cc3F)ccnc2cc1OCCCN1CCOCC1 (stereo partly drawn) [Example 370, (2R,3R)-N-[3-fluoro-4-({6-(methyloxy)-7-[(3-morpholin-4-ylpropyl)oxy]quinolin-4-yl}oxy)phenyl]-N′-(4-fluorophenyl)-2,3-dimethylcyclopropane-1,1-dicarboxamide] | 50 to 500 nM | < 50 nM | < 50 nM |
| CCN(CC)CCCOc1cc2nccc(Oc3ccc(NC(=O)C4(C(=O)Nc5ccc(F)cc5)[C@H](C)[C@H]4C)cc3F)c2cc1OC (stereo partly drawn) [Example 371, (2R,3R)-N-(4-{[7-{[3-(diethylamino)propyl]oxy}-6-(methyloxy)quinolin-4-yl]oxy}-3-fluorophenyl)-N′-(4-fluorophenyl)-2,3-dimethylcyclopropane-1,1-dicarboxamide] | 50 to 500 nM | < 50 nM | < 50 nM |
| CCN(CC)CCCOc1cc2nccc(Oc3ccc(NC(=O)C4(C(=O)Nc5ccc(F)cc5)CC4(C)C)cc3F)c2cc1OC (stereo not drawn) [Example 372, N-(4-{[7-{[3-(diethylamino)propyl]oxy}-6-(methyloxy)quinolin-4-yl]oxy}-3-fluorophenyl)-N′-(4-fluorophenyl)-2,2-dimethylcyclopropane-1,1-dicarboxamide] | 50 to 500 nM | < 50 nM | < 50 nM |
| COc1cc2c(Oc3ccc(NC(=O)C4(C(=O)Nc5ccc(F)cc5)CC4(C)C)cc3F)ncnc2cc1OCCCN1CCOCC1 (stereo not drawn) [Example 373, N-[3-fluoro-4-({6-(methyloxy)-7-[(3-morpholin-4-ylpropyl)oxy]quinazolin-4-yl}oxy)phenyl]-N′-(4-fluorophenyl)-2,2-dimethylcyclopropane-1,1-dicarboxamide] | 500 to 5000 nM | < 50 nM | < 50 nM |
| CCN(CC)CCCOc1cc2nccc(Oc3ccc(NC(=O)[C@@]4(C(=O)Nc5ccc(F)cc5)[C@H](C)[C@@H]4C)cc3F)c2cc1OC [Example 374, (1r,2R,3S)-N-(4-{[7-{[3-(diethylamino)propyl]oxy}-6-(methyloxy)quinolin-4-yl]oxy}-3-fluorophenyl)-N′-(4-fluorophenyl)-2,3-dimethylcyclopropane-1,1-dicarboxamide] | 50 to 500 nM | 50 to 500 nM | < 50 nM |
| CCN(CC)CCOc1cc2nccc(Oc3ccc(NC(=O)C4(C(=O)Nc5ccc(F)cc5)CC4(C)C)cc3F)c2cc1OC (stereo not drawn) [Example 375, N-(4-{[7-{[2-(diethylamino)ethyl]oxy}-6-(methyloxy)quinolin-4-yl]oxy}-3-fluorophenyl)-N′-(4-fluorophenyl)-2,2-dimethylcyclopropane-1,1-dicarboxamide] | 500 to 5000 nM | < 50 nM | < 50 nM |
| CCN(CC)CCOc1cc2nccc(Oc3ccc(NC(=O)[C@@]4(C(=O)Nc5ccc(F)cc5)[C@H](C)[C@@H]4C)cc3F)c2cc1OC [Example 376, (1r,2R,3S)-N-(4-{[7-{[2-(diethylamino)ethyl]oxy}-6-(methyloxy)quinolin-4-yl]oxy}-3-fluorophenyl)-N′-(4-fluorophenyl)-2,3-dimethylcyclopropane-1,1-dicarboxamide] | 50 to 500 nM | 50 to 500 nM | < 50 nM |
| COc1cc2c(Oc3ccc(NC(=O)C4(C(=O)Nc5ccc(F)cc5)CC4(C)C)cc3F)ccnc2cc1OCCCN1CCOCC1 (stereo not drawn) [Example 377, N-[3-fluoro-4-({6-(methyloxy)-7-[(3-morpholin-4-ylpropyl)oxy]quinolin-4-yl}oxy)phenyl]-N′-(4-fluorophenyl)-2,2-dimethylcyclopropane-1,1-dicarboxamide] | 50 to 500 nM | < 50 nM | < 50 nM |
| CCN(CC)CCOc1cc2ncnc(Oc3ccc(NC(=O)C4(C(=O)Nc5ccc(F)cc5)CC4(C)C)cc3F)c2cc1OC (stereo not drawn) [Example 378, N-(4-{[7-{[2-(diethylamino)ethyl]oxy}-6-(methyloxy)quinazolin-4-yl]oxy}-3-fluorophenyl)-N′-(4-fluorophenyl)-2,2-dimethylcyclopropane-1,1-dicarboxamide] | 500 to 5000 nM | 50 to 500 nM | < 50 nM |
| CCN(CC)CCCOc1cc2ncnc(Oc3ccc(NC(=O)C4(C(=O)Nc5ccc(F)cc5)CC4(C)C)cc3F)c2cc1OC (stereo not drawn) [Example 379, N-(4-{[7-{[3-(diethylamino)propyl]oxy}-6-(methyloxy)quinazolin-4-yl]oxy}-3-fluorophenyl)-N′-(4-fluorophenyl)-2,2-dimethylcyclopropane-1,1-dicarboxamide] | 500 to 5000 nM | < 50 nM | < 50 nM |

From patent US8476298B2 (Exelixis, Inc., priority 2003, dated 2013)
